In patent US10258600B2, “Aryl hydrocarbon receptor (AhR) modifiers as novel cancer therapeutics” (Trustees of Boston University, priority 2010, dated 2019):
Entries after “also recorded” stand apart in the source; their conditions may differ.

Legend:
[1] = system: BP1 cells; test: Tumor invasion in Matrigel, BP1; assay type: cell-based, human; conditions: 5 uM, 5 days
Description: (§1) BP1 cells were cultured in the presence of vehicle (left) or 5 uM CB7993113 in Matrigel for 5 days. CB7993113 is not toxic at the highest doses tested, 10 uM.
BP1 cells were cultured in Matrigel in the presence of vehicle, 5 μM DIM (16A), vehicle or 5 uM CB7950998 (16B) for 5 days.

[2] = system: BP1 and MCF-10F cells; test: 3H-thymidine incorporation cell growth; assay type: cell-based, human; conditions: 18 hrs
[3] = system: Hs578T cells; test: Tumor invasion in Boyden Chambers; assay type: cell-based, human; conditions: 10^−5M, 2 days
Description: (§2) Hs578T cells were cultured in Boyden Chambers (FIG. 7A) or in Matrigel (FIG. 7B) in the presence of DMSO, 10^−5M CMLD-2166, CMLD-2186 (a 2166 enantiomer) or CH223191 and assayed for invasion 2 (Boyden Chambers) or 7 (Matrigel) days later.

[4] = system: Hs578T cells; test: Tumor invasion in Matrigel, Hs578T; assay type: cell-based, human; conditions: 10^−5M, 7 days
Description: as §2

[5] = target: T1, PPARγ (Homo sapiens, UniProt P37231); test: PPARγ-driven luciferase reporter in Cos 7 cells; assay type: cell-based; conditions: rosiglitazone 1 μM, 18-24 hrs
T1 construct: expressed in transfected cells; host or cells: Cos 7 cells
T1 sequence (P37231 1-505): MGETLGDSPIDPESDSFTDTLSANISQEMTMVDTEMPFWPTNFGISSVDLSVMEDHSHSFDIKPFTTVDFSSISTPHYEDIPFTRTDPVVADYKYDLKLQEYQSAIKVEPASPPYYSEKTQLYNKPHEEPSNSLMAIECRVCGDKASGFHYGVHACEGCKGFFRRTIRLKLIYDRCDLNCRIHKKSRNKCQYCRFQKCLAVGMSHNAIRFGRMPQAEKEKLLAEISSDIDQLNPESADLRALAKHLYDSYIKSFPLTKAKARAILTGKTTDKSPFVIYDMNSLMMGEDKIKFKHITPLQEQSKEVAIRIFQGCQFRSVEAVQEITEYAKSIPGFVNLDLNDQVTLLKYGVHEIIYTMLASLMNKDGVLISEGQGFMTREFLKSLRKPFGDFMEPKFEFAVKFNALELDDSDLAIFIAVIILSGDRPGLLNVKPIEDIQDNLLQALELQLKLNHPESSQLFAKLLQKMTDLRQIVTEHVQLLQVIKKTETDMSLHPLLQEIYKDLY
T1 sequence (P19793 1-462 partner): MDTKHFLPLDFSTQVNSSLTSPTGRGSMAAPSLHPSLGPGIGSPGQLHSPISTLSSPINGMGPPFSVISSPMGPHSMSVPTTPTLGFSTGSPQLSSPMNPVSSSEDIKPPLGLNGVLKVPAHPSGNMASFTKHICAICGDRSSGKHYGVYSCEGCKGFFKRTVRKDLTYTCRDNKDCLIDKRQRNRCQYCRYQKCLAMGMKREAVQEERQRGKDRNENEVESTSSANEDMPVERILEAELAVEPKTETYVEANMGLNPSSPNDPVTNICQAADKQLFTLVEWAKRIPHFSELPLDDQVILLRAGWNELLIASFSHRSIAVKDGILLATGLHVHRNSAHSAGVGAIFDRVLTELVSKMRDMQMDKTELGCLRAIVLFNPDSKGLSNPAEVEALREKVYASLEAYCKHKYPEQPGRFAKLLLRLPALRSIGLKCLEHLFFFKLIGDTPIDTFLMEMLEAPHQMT
Description: Cos 7 cells were transfected with the peroxisome proliferator activator receptor-γ (PPARγ), its dimerization partner, RXR, a PPARγ-driven luciferase reporter construct, and a control CMV-driven GFP reporter for 24 hours. Cells then were treated with a vehicle, 10 μM AhR inhibitor CH223191, 50 μM AhR inhibitor CMLD-2166, or 10 μM AhR inhibitor CB7993113. (These represent high AhR inhibitor doses). Rosiglitazone (1 μM), a strong PPARγ agonist, was added 1 hour later and cells assayed 18-24 hrs thereafter for PPARγ-driven reporter activity (luciferase intensity), normalized to the GFP signal. Data were pooled from 4 experiments. Unlike their ability to block AhR-driven reporter activity, the AhR inhibitors had no effect on the PPARγ-driven reporter activity.

[6] = target: T2, AhR (Homo sapiens, UniProt P35869); test: Radiolabeled TCDD displacement from in vitro translated AhR, sucrose gradient; assay type: binding; design: made in house; conditions: fractions 13-16 of sucrose gradient
T2 sequence (P35869 11-848): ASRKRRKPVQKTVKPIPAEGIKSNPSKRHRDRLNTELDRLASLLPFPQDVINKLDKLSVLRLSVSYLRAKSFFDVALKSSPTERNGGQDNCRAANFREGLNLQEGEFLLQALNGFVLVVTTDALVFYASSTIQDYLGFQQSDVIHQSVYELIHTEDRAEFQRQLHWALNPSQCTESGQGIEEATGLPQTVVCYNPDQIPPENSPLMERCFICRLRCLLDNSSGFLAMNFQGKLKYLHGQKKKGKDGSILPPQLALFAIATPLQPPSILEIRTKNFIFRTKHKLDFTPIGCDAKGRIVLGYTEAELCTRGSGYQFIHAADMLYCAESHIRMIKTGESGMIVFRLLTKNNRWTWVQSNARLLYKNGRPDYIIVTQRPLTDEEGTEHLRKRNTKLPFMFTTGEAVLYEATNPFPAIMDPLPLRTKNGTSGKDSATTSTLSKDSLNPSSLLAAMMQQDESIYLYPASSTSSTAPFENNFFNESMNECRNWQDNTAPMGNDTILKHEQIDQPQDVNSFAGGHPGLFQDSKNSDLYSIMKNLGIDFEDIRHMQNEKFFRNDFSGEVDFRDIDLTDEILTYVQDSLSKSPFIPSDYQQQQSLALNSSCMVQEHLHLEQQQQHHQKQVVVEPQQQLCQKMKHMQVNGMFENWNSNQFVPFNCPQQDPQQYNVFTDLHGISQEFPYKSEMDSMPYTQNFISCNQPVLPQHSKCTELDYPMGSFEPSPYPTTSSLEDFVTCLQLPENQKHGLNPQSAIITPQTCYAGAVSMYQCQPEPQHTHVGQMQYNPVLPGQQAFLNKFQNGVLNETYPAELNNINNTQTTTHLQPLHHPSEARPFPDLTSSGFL
Description: The compounds CMLD-2166 and CB7993113 were mixed with in vitro translated human AhR and radiolabeled TCDD (dioxin), a high affinity AhR ligand. Complexes then were separated on a sucrose gradient and fractions assayed for radioactivity. A decrease in the signal (displacement of radiolabeled TCDD) can be seen in fractions 13-16 indicating binding of the test compound to the AhR and displacement of TCDD.

[7] = target: T3, AhR (Mus musculus, UniProt P30561); test: High throughput AhR-driven GFP reporter bioassay in H1G1 cells; assay type: cell-based; design: H1G1 cells expressing an AhR-driven GFP reporter construct; endogenous in cells; host or cells: H1G1 cells; conditions: titered in presence of 1 μM BNF; read-out: AhR Antagonists IC50
Description: Using a high throughput reporter-based AhR bioassay and cell viability assay, over 4000 CMLD compounds, FDA drugs, and NCI-generated extracts were screened, and 8 non-toxic AhR inhibitors (2 from the CMLD) and 19 AhR agonists (14 from the CMLD) were identified (as shown in, e.g., FIGS. 4A-4B). IC50 values for inhibitors and EC50 values for agonists were determined (Table 1). One of these discovered inhibitors (CMLD-2166), its enantiomer (CMLD-2186), and a previously described lipid soluble AhR inhibitor (CH223191) blocked tumor growth and invasion (FIGS. 5A-5B and 7A-7B).
FIGS. 4A-4B show high-throughput screening (HTS) for AhR agonists and antagonists. […] A dark circle identifies an AhR inhibitor while the light circle indicates an agonist. […] Over 4,000 compounds were screened in this semi-automated assay.

[8] = target: T2, AhR; test: AhR-responsive pGudLuc reporter, constitutive AhR activity; assay type: cell-based; design: malignant BP1 and immortalized MCF-10F cells that were transiently transfected with AhR-responsive pGudLuc; endogenous in cells; host or cells: BP1 and MCF-10F cells; conditions: BP1 and MCF-10F cells, 24 hrs
[9] = system: bone marrow hematopoietic cells; test: DMBA-induced bone marrow toxicity in mice; assay type: in vivo, C57BL/6 mice; conditions: 48 hours; for DMBA-induced decrease in total number of bone marrow cells: 50 mg/kg i.p., 50 mg/kg DMBA; for DMBA-induced decrease in pro B cells, pre-B cells and neutrophils: co-administration with 50 mg/kg DMBA
Description: To test the ability of one of the lead compounds described herein, CB7993113, to be absorbed and to function effectively in vivo, C57BL/6 mice were treated with an acutely toxic dose (50 mg/kg) of DMBA, a potent AhR agonist, in the presence or absence of CB7993113 or another AhR inhibitor, CH223191. […] This decrease in the total number of bone marrow cells was prevented by the i.p. injection of 50 mg/kg CH223191 or CB7993113.
Mice then were injected with 50 mg/kg DMBA. Mice were sacrificed 48 hours later. Bone marrow hematopoietic cells were expunged from the bone and viable cells counted. Data are presented as the average number of viable white blood cells+SE. **p<0.01, ***P<0.001, student's t-test. […] C57BL/6 mice (6/group) were treated as in FIG. 8A. The percentage and number of viable bone marrow pro B cells, pre B cells, and neutrophils were determined 48 hours later by flow cytometry. Data are presented as the average number of viable cells of each subtype+SE. (*p<0.05, **P<0.01, student's t-test).

[10] = system: BP1 cells; test: Toxicity of CB7993113 at highest doses tested; assay type: cell-based, human; conditions: 10 uM
Description: as §1

[11] = target: T3, AhR; test: AhR nuclear translocation, western immunoblot of Hepa-1 nuclear and cytoplasmic extracts; assay type: cell-based; design: endogenous in cells; conditions: Hepa-1 cells
Description: To determine whether the inhibitory action of CB7993113 involves binding to the AhR and blocking its translocation to the nucleus, Hepa-1 cells were treated with 1-10 uM CB7993113. One hour later they were challenged with a strong AhR agonist and prototypic PAH, DMBA (1 uM). After a 30 minute incubation period, cells were harvested and extracts from cell nuclei and cytoplasm were obtained. These extracts then were probed for levels of AhR and, as a loading control, β-actin, by western immunoblotting.
Hepa-1 cells were treated with vehicle or 1-10 μM CH223191. One hour later cells were treated with 0.1 μM DMBA (where indicated) and incubated for 30 minutes. Cells were harvested and proteins from the cytoplasm and nuclei were extracted. Extracted proteins were subjected to AhR- or, as loading control, β-actin-specific western immunoblots. Data are representative of 3 independent experiments.

T3 sequence (P30561 10-805 limits assumed): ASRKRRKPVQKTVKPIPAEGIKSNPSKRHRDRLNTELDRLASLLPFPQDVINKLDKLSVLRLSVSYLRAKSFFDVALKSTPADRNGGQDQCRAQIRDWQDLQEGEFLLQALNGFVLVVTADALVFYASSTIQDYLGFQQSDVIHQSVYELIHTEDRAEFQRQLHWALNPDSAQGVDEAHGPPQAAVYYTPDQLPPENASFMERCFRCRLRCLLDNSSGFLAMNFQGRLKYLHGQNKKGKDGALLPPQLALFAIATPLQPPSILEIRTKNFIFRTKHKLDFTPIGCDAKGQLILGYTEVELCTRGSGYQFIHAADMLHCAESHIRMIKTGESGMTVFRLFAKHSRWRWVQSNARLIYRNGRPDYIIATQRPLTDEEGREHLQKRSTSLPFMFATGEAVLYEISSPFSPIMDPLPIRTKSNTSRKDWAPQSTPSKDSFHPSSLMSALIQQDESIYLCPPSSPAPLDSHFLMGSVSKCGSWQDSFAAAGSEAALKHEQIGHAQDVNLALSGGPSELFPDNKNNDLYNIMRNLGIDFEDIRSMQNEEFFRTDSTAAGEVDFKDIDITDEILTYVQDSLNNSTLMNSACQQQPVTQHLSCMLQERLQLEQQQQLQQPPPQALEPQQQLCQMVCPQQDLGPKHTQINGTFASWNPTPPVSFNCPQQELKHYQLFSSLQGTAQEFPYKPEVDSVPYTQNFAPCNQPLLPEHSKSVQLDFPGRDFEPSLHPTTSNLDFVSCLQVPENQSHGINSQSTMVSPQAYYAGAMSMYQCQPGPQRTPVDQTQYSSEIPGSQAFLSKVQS
T3 sequence (P11499 whole entry partner): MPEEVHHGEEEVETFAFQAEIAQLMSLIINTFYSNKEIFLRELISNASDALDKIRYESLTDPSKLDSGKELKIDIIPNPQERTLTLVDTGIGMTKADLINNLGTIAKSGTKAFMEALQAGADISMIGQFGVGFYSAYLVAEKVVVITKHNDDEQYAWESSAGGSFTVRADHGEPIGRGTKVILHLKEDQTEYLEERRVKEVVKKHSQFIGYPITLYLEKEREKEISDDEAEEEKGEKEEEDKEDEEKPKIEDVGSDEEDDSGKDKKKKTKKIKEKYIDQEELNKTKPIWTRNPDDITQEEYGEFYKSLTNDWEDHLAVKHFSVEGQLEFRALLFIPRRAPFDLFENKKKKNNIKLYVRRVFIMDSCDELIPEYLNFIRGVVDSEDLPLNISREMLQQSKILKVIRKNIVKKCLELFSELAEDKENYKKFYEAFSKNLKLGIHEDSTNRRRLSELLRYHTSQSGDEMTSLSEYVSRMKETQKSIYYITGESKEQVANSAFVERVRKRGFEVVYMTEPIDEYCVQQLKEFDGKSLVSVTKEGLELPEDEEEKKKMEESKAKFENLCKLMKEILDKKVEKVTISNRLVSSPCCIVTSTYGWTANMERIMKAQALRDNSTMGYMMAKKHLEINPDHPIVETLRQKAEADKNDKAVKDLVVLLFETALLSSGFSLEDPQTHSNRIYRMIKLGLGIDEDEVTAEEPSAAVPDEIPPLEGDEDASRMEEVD
T3 sequence (O08915 whole entry partner): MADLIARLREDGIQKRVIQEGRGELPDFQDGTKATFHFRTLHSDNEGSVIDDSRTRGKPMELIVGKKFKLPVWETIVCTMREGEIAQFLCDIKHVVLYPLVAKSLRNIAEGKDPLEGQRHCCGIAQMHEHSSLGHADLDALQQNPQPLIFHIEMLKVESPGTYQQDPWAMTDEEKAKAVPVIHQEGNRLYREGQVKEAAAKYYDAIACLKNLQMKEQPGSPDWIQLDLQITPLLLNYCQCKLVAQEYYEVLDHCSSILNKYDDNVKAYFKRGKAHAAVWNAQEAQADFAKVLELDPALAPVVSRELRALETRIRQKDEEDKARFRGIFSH

binding to AhR (displacement of radiolabeled TCDD) [6]	SMILES	BP1 tumor invasion in Matrigel [1]	cell growth (3H-thymidine incorporation) [2]	tumor invasion, Boyden Chambers [3]	tumor invasion, Matrigel [4]	IC50 [7]	constitutive AhR activity (pGudLuc activity) [8]	DMBA-induced decrease in total number of bone marrow cells [9]	DMBA-induced decrease in pro B cells, pre-B cells and neutrophils [9]	PPARγ-driven reporter activity ([5]; 10 μM)	further results
	CCOC(=O)Oc1c(-c2ccc(Cl)cc2)oc2ccccc2c1=O [CB7950998]	reduce									
bind human AhR	COc1ccc2c(c1)C(=O)[C@H](OC(=O)NS(=O)(=O)c1ccc(C)cc1)[C@@H](c1ccc(OC)c(Br)c1)O2 [CMLD-2166]		blocked	inhibit tumor invasion	inhibit tumor invasion	200 nM	inhibit				cell growth (3H-thymidine incorporation) ([2]; listed as CMLD 2166): inhibit; PPARγ-driven reporter activity ([5]; 50 μM): no effect
	Cc1ccccc1N=Nc1ccc(NC(=O)c2ccnn2C)c(C)c1 [CH223191, reference compound]		blocked; also recorded: inhibit	inhibit tumor invasion	inhibit tumor invasion	330 nM	inhibit	prevented	completely blocked	no effect	
bind human AhR	NC(=O)COc1c(-c2ccc(Br)o2)oc2ccccc2c1=O [CB7993113]	blocks						prevented	completely blocked	no effect	toxicity [10]: not toxic; DMBA-induced AhR translocation to the nucleus ([11]; 1-10 uM, 1 h before DMBA, 30 min): completely blocked; translocation of the AhR to the nucleus, inhibitor alone (agonist activity) ([11]; no DMBA): no effect
	c1ccc2c(Cc3c[nH]c4ccccc34)c[nH]c2c1 [DIM, 3,3′-diindolylmethane, reference compound]	reduce									
